These results are taken from patent publication US20090093499A1, “Pharmaceutical composition” (LEK PHARMACEUTICALS D.D., priority 2005, published 2009).

Bounds are passed on as bounds.

A short description of the data set: Stress stability of the bulk agent and its mixtures with excipients (degradation products by HPLC). Format: physicochemical. How it is done: The bulk agent is subjected to stress conditions, such as elevated temperature (40° C. and above), elevated humidity (75% or higher relative humidity, open dish conditions), oxygen atmosphere or solutions with different pH. An HPLC analysis, capable of resolving the agent and its degradation products is then employed, to quantify the amount (given as a mass percentage relative to the agent) of degradation products in the stressed samples. Good chromatographic resolution can be achieved on a C18 reversed phase column with acidic phosphate buffer and an increasing gradient of acetonitrile and tetrahydrofuran. Degradation products are quantified using UV detection at 242 nm. The reporting limit of the degradation products has been set at 0.05%. The % reported for HPLC analysis are in general area %.

The mark [1] stands for this setting: aqueous solution of the agent, buffered to pH = 5 at room temperature (24 hours).
Setting [2] is: under oxygen at 60° C. for 14 days.

Regarding “(E)-7-[4-(4-fluorophenyl)-6-isopropyl-2-[methyl(methylsulfonyl)amino]pyrimidin-5-yl]-(3R, 5S)-3,5-dihydroxyhept-6-enoic acid hemicalcium salt [the agent]”, under setting [1], the “amount of lactone (%)” value is recorded as 2.30% and the “amount of oxidation product (%)” value is listed as below 0.05%. In addition, under setting [2], the “amount of lactone (%)” value was 0.17% and the “amount of oxidation product (%)” value worked out at 0.71%.
